Measured values as given in US4080466A, “Pharmaceutical compositions containing 4-hydroxyl-1,3-dithiolan-2-ylidene malonates” (Nihon Nohyaku Co., Ltd., priority 1976, dated 1978).

Tests used:
[1] = test system: glucose metabolism; assay: Effect on glucose metabolism; format: in vivo, mice; conditions: 250 mg/kg oral, 6 h before glucose 4.0 g/kg
Method: The test compounds dissolved in olive oil and administered orally at the dose of 250 mg/kg to the mice. After 6 hours, 4.0 g/kg of glucose was orally administered. The same amount of glucose was given to the control animals. 0.02 ml of blood was taken from caudal vein of the mice at 30, 60, 90 and 120 min. after glucose administration. Blood sugar was measured by the procedure of Somogyi-Nelson. Number of animals used was 5 to 6 mice for each treatment.

[2] = test system: excretion of biliary salt; assay: Cholagogic Action: effect on the excretion of biliary salt; format: in vivo, rats (SD-JCL strain); conditions: 200 mg/kg oral; for Excretion of biliary salt: before treatment = 100
Method: (§1) Drugs as choleresis are used for patients to improve bile flow. In the present example, the effect of the compound of the invention on the quantities of bile and biliary salt is investigated. Methods:
(§2) The male rats (4 week-aged, SD-JCL strain) were anesthetized with sodium pentobarbital (37.5 mg/kg, intraperitoneal injection). The abdominal cavity was opened through a midline incision. The common bile duct was catheterized with polyethylene tube o.d. 0.8 mm. The catheter was brought to the outside through the abdominal incision would prior to closing. Bile was collected from the catheter continuously with time intervals of one hour. The quantity of bile produced in one hour was determined by weighing and that of biliary salt was determined by enzymatic method (Ikagaku Jikkenho Koza 1B, Biological Constituents II, edited by Tamio YAMAKAWA). The amount of biliary salt was represented in the term of cholic acid equivalent.
(§3) In the representation of the results, the quantities of bile and biliary salt produced in one hour prior to the administration of drug were taken as 100. The compound of this invention was orally administered at the dose of 200 mg/kg. As reference, anethol trithion was used.

[3] = test system: bile flow; assay: Cholagogic Action: effect on bile flow; format: in vivo, rats (SD-JCL strain); conditions: 200 mg/kg oral; for Bile flow: before treatment = 100
Method: as §1, §2, §3

[4] = test system: fatty liver induced by ethionine; assay: Effect on Fatty Liver (ethionine); format: in vivo, mouse (dd-strain); conditions: 250 mg/kg oral, 24 h, 10 animals
Excerpt: But, the fatty liver is grouped into a couple of patterns from the mechanism of lipid accumulation or metabolism of lipoprotein in the liver. Ethionine is a typical example which induces first pattern of fatty liver. It inhibits RNA and protein synthesis and destructs polysome of the liver cell. Fatty liver is induced by inhibition of the protein synthesis and disturbance of lipoprotein secretion.
Usually, fatty liver is closely related to the accumulation of triglyceride in the liver. In the present example, the degree of fatty liver and protective or therapeutic effect against the fatty liver was evaluated by measurement of triglyceride content in the liver. Methods:
The compounds of this invention and methionine were independently dissolved or suspended into olive oil and administered orally to 4 week-old male mouse (dd-strain) at the dose of 250 mg/kg. One hour before it, simultaneously to it, or one hour after it, ethionine dissolved in equimolar NaOH solution was administered intraperitoneally at the dose of 200 mg/kg. Twenty four hours after the administration of ethionine, the animals were sacrificed and triglyceride content in the liver was determined by chromotropic acid method.

[5] = test system: acute liver damage induced by carbon tetrachloride; assay: Protective Effect on Acute Liver Damage associated with Centrilobular Necrosis (carbon tetrachloride); format: in vivo, mice (dd-strain); conditions: 250 mg/kg oral, average of 5 to 6 mice
Excerpt: Carbon tetrachloride (CCl4) administration induces centrilobular necrosis of the liver associated with loss of diphosphopyridine nucleotide, hepatic glycogen, coenzyme A and increase in neutral fat. Release of several enzymes from the hepatocytes, and increase of enzyme activities in the plasma are recognized as the result of the damage of the liver. A suitable means for evaluating the degree of damage induced by CCl4 or the degree of protection afforded by drugs is to study the plasma glutamic-pyruvic transminase (p-GPT) activity.
Methods: The test compounds were dissolved or suspended in olive oil and administered orally at the dose of 250 mg/kg to the mice (Four-week-old male mice-dd strain). After 6 hours, CCl4 was administered orally (0.05 ml/kg as olive oil solution). Animals were killed 24 hours after CCl4 administration, and the liver was grossly observed. The plasma was obtained by centrifugation. Activities of p-GPT were determined by the method of Reitman and Frankel and expressed in Karmen units.
Score for liver damage index was as follows:
4 Clearly observable damage
Each figure indicates average of 5 to 6 mice. Values of p-GPT over 1,000 Karmen unit regarded as 1,000 for calculation of average for convenience.

[6] = test system: fatty liver induced by carbon tetrachloride; assay: Therapeutic Effect on Fatty Liver (carbon tetrachloride); format: in vivo, rats (SD strain); conditions: 10 days; for Degree of fatty liver (histopathological examination): one symbol per animal
Method: Methods: […] The treated animals were left for 3 days after the last administration to maximize the manifestation of fatty liver. […] It was orally given everyday for 10 days at the dose of 50 or 250 mg/kg. On the 11th day, the animals were sacrificed. The therapeutic effect was evaluated by determining the content of liquid in the liver (triglyceride and total lipid) and examining the histopathological changes. Triglyceride and total lipid were determined colorimetrically by chromotropic acid method and Bragdon's oxidation method, respectively. Indices for the histopathological change is as follows: […]

[7] = test system: glucose metabolism; assay: Effect on glucose metabolism; format: in vivo, mice; conditions: 250 mg/kg oral, 6 h before glucose 4.0 g/kg; 0 min
[8] = test system: alcohol metabolic function of liver; assay: Effect on Concentration of Ethyl alcohol in the Blood; format: in vivo, mice; conditions: 250 mg/kg oral, 6 h before ethyl alcohol 1,000 mg/kg
Method: After 6 hours, 1,000 mg/kg of ethyl alcohol was given orally. Blood was taken in a capillary from caudal vein at the time indicated in the results. The plasma was obtained by centrifugation. The concentration of ethyl alcohol in the plasma was measured by FID type gas liquid chromatography. Five mice were used for each group.

Structure (SMILES): CCOC(=O)C(C(=O)OCC)=C1SCC(O)S1 (stereo not drawn) [Compound 1, Diethyl 4-hydroxy-1,3-dithiolan-2-ylidene malonate]
- Blood Sugar ([1]; 30 min): 260 ± 20.4 mg/dL
- Blood Sugar ([1]; 60 min): 228 ± 15.2 mg/dL
- Blood Sugar ([1]; 90 min): 188 ± 11.3 mg/dL
- Blood Sugar ([1]; 120 min): 132 ± 10.4 mg/dL
- Excretion of biliary salt ([2]; 1 hour after treatment): 103 ± 6.8
- Excretion of biliary salt ([2]; 2 hours after treatment): 102 ± 6.6
- Excretion of biliary salt ([2]; 3 hours after treatment): 100 ± 5.8
- Excretion of biliary salt ([2]; 4 hours after treatment): 95 ± 7.7
- Amount of total excreted biliary salts relative to control ([2]; 5 hours after administration): 1.40 times
- Excretion of biliary salt ([2]; 5 hours after treatment): 86 ± 5.2
- Bile flow ([3]; 1 hour after treatment): 110 ± 1.8
- Bile flow ([3]; 2 hours after treatment): 115 ± 6.8
- Bile flow ([3]; 3 hours after treatment): 105 ± 6.2
- Bile flow ([3]; 4 hours after treatment): 98 ± 8.2
- Quantity of total excreted bile relative to control ([3]; 5 hours after administration): 1.10 times
- Bile flow ([3]; 5 hours after treatment): 80 ± 6.8
- Triglyceride ([4]; compound 1 hr after ethionine): 11.8 ± 0.72 mg/g-liver
- Triglyceride ([4]; compound 1 hr before ethionine (200 mg/kg i.p.)): 12.3 ± 0.82 mg/g-liver
- Triglyceride ([4]; simultaneous with ethionine (0 hr)): 7.1 ± 0.24 mg/g-liver
- Liver damage index ([5]; 6 h before CCl4 (0.05 ml/kg oral), score 0 Normal, 2 slight, 4 clear, 6 heavy damage): 0.5
- p-GPT (plasma glutamic-pyruvic transaminase activity) ([5]; 6 h before CCl4, 24 h after CCl4, values over 1,000 regarded as 1,000): 66 Karmen units
- Total lipid ([6]; 50 mg/kg oral): 80.2 ± 9.8 mg/g-liver
- Triglyceride ([6]; 50 mg/kg oral): 36.2 ± 7.8 mg/g-liver
- Degree of fatty liver (histopathological examination) ([6]; 50 mg/kg oral): ± + ± ± ± ± +
- Total lipid ([6]; 250 mg/kg oral): 70.3 ± 10.2 mg/g-liver
- Triglyceride ([6]; 250 mg/kg oral): 24.9 ± 8.2 mg/g-liver
- Degree of fatty liver (histopathological examination) ([6]; 250 mg/kg oral): ± ± - - ± ± ±
- Blood Sugar [7]: 138 ± 18.2 mg/dL
- Concentration of Ethyl alcohol in Plasma ([8]; 0 min): 12±3 ppm
- Concentration of Ethyl alcohol in Plasma ([8]; 5 min): 732±102 ppm
- Concentration of Ethyl alcohol in Plasma ([8]; 15 min): 710±88 ppm
- Concentration of Ethyl alcohol in Plasma ([8]; 30 min): 455±112 ppm
- Concentration of Ethyl alcohol in Plasma ([8]; 60 min): 12±7 ppm
